{"source": "ChEMBL document CHEMBL3044823", "about": "“Design, synthesis, and evaluation of anti-inflammatory and ulcerogenicity of novel pyridazinone derivatives” (Med Chem Res, 2012)", "key": {"Rattus norvegicus [1]": {"test_system": "Rattus norvegicus", "assay": "Ulcerogenicity in Rattus norvegicus Sprague-Dawley (rat) stomach assessed as ulcer score at 50 mg/kg administered via intragastrically after 6 hr by hematoxylin and eosin staining", "type": "toxicity, organism-based", "design": "dose 50 mg/kg, route intragastric", "conditions": "in vivo, po"}, "Rattus norvegicus [2]": {"test_system": "Rattus norvegicus", "assay": "Anti-inflammatory activity in Rattus norvegicus Sprague-Dawley (rat) assessed as inhibition of carrageenan-induced paw edema at 10 mg/kg administered 1 hr prior to carrageenan challenge measured at 4 hr relative to diclofenac", "type": "functional"}, "Rattus norvegicus [3]": {"test_system": "Rattus norvegicus", "assay": "Anti-inflammatory activity in Rattus norvegicus Sprague-Dawley (rat) assessed as inhibition of carrageenan-induced paw edema at 10 mg/kg administered 1 hr prior to carrageenan challenge measured at 1 hr relative to control", "type": "functional"}, "Rattus norvegicus [4]": {"test_system": "Rattus norvegicus", "assay": "Anti-inflammatory activity in Rattus norvegicus Sprague-Dawley (rat) assessed as inhibition of carrageenan-induced paw edema at 10 mg/kg administered 1 hr prior to carrageenan challenge measured at 4 hr relative to control", "type": "functional"}, "Rattus norvegicus [5]": {"test_system": "Rattus norvegicus", "assay": "Anti-inflammatory activity in Rattus norvegicus Sprague-Dawley (rat) assessed as inhibition of carrageenan-induced paw edema at 10 mg/kg administered 1 hr prior to carrageenan challenge measured at 2 hr relative to control", "type": "functional"}, "Rattus norvegicus [6]": {"test_system": "Rattus norvegicus", "assay": "Ulcerogenicity in Rattus norvegicus Sprague-Dawley (rat) stomach assessed as decrease in gastric mucosa layer thickness at 50 mg/kg administered via intragastrically after 6 hr by hematoxylin and eosin staining relative to untreated control", "type": "toxicity, organism-based", "design": "dose 50 mg/kg, route intragastric; scale not given: the % may be the effect or the level left", "conditions": "in vivo, po"}, "Rattus norvegicus [7]": {"test_system": "Rattus norvegicus", "assay": "Ulcerogenicity in Rattus norvegicus Sprague-Dawley (rat) stomach assessed as appearance of cone shape gastric mucosa layer at 50 mg/kg administered via intragastrically after 6 hr by hematoxylin and eosin staining relative to untreated control", "type": "toxicity, organism-based", "design": "dose 50 mg/kg, route intragastric", "conditions": "in vivo, po"}}, "data": [{"smiles": "Cc1cccc(C)c1Nc1ccc(=O)[nH]n1", "values": [{"measurement": "UI", "setting": "Rattus norvegicus [1]", "value": 1.8}]}, {"smiles": "O=C(O)c1ccccc1Oc1ccc(=O)[nH]n1", "values": [{"measurement": "UI", "setting": "Rattus norvegicus [1]", "value": 2}]}, {"smiles": "O=c1ccc(Nc2ccccc2Br)n[nH]1", "values": [{"measurement": "UI", "setting": "Rattus norvegicus [1]", "value": 4.2}]}, {"smiles": "O=C(O)Cc1ccccc1Nc1c(Cl)cccc1Cl", "note": "[DICLOFENAC]", "values": [{"measurement": "inhibition in vivo at 10 mg/kg", "setting": "Rattus norvegicus [2]", "value": 100, "unit": "%"}, {"measurement": "inhibition in vivo at 10 mg/kg", "setting": "Rattus norvegicus [3]", "value": 65.3, "unit": "%"}, {"measurement": "inhibition in vivo at 10 mg/kg", "setting": "Rattus norvegicus [4]", "value": 78.3, "unit": "%"}, {"measurement": "inhibition in vivo at 10 mg/kg", "setting": "Rattus norvegicus [5]", "value": 73.5, "unit": "%"}]}, {"smiles": "COc1ccc2c(c1)c(CC(=O)O)c(C)n2C(=O)c1ccc(Cl)cc1", "note": "[INDOMETHACIN]", "values": [{"measurement": "Activity", "setting": "Rattus norvegicus [6]", "value": 20, "unit": "%"}, {"measurement": "UI", "setting": "Rattus norvegicus [1]", "value": 7.2}, {"measurement": "Activity", "setting": "Rattus norvegicus [7]", "value": "Toxic"}]}]}
